Laboratory results published in patent publication US7282522B2, “Hydroxamic acid derivatives and the method for preparing thereof” (Amorepacific Corporation, priority 2003, dated 2007).

What was measured:
RARα = biological target: T1, RARα (Homo sapiens, UniProt P10276); test: RARE-luciferase reporter assay in transfected CV-1 cells (affinity to retinoic acid receptor), RARα; assay type: cell-based; details: treated 24 hours at final concentration 10^−4M, control group 1000
T1 construct: expressed in transfected cells; host or cells: CV-1 cells (ATCC)
T1 sequence (P10276 1-462): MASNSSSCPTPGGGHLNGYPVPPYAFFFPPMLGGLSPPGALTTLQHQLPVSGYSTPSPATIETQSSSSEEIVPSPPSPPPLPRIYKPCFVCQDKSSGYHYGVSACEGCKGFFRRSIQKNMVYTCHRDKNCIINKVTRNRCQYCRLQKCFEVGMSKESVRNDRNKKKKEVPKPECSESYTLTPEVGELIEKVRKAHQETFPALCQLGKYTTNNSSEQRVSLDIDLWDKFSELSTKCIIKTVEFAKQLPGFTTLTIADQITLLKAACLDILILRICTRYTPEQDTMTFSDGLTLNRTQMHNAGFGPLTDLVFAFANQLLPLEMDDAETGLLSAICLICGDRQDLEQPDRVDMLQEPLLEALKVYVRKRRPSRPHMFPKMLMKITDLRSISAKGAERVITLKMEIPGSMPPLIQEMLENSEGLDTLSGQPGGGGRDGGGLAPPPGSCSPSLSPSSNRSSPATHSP
Excerpt: This example illustrates affinities of hydroxamic acid derivatives obtained in Examples 1 to 55 to retinoic acid receptor, in comparison with retinol and retinoic acid.
(§1) Receptor-expression plasmid, pECE-RARα and pECE-RARγ were engineered by the prior method (Mol. Cell. Biol. 1996, 16, 1138-1149). RARE-tk-Luc, i.e. RARE reporter was obtained by inserting RARE fragment from b-RARE-tk-CAT into pGL3 luciferase basic vector. CV-1 cells were obtained from ATCC (American Type Culture Collection).
CV-1 cells were seeded into 96-well microtiter plate at 5,000 cells per well and cultured in DMEM (Dulbecco's Modified Eagle's Media) supplemented with 2.5% fetal bovine serum. 24 Hours later, the cells were transfected with 10 ng of pECE-RARα, long of pECE-RARγ, 100 ng of reporter plasmid and 100 ng of β-galactosidase-expression vector, using LipofectaminPlus (GIBCO BRL, grand island, N.Y.). 24 Hours post-transfection, the cells were treated for 24 hours with hydroxamic acid derivatives of Examples 1˜55 or retinol at a final concentration of 10^−4M or with retinoic acid at a final concentration of 10^−5M, which is 10 times lower concentration than those of the former.

RARγ = biological target: T2, RARγ (Homo sapiens, UniProt P13631); test: RARE-luciferase reporter assay in transfected CV-1 cells (affinity to retinoic acid receptor), RARγ; assay type: cell-based; details: treated 24 hours at final concentration 10^−4M, control group 5000
T2 construct: expressed in transfected cells; host or cells: CV-1 cells (ATCC)
T2 sequence (P13631 1-454): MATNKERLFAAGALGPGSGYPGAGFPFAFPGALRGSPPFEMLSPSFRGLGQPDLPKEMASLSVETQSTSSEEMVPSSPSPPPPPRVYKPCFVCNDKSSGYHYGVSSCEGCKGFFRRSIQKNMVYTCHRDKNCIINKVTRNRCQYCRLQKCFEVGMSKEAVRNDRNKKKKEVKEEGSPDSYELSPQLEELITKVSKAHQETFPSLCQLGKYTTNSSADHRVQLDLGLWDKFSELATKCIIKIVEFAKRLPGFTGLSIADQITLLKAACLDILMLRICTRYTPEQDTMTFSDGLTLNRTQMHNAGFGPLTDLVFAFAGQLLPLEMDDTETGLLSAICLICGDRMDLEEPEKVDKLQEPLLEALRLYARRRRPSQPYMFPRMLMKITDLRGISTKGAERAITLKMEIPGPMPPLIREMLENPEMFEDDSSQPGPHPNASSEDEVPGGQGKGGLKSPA
Experimental: as §1
CV-1 cells were seeded into 96-well microtiter plate at 5,000 cells per well and cultured in DMEM (Dulbecco's Modified Eagle's Media) supplemented with 2.5% fetal bovine serum. 24 Hours later, the cells were transfected with 10 ng of pECE-RARα, long of pECE-RARγ, 100 ng of reporter plasmid and 100 ng of β-galactosidase-expression vector, using LipofectaminPlus (GIBCO BRL, grand island, N.Y.).

procollagen type I = test: Effect on collagen biosynthesis (procollagen type I ELISA) in human fibroblasts; assay type: cell-based; details: 10^−4M, 24 hours, serum-free medium, relative to control group = 100
Experimental: Human fibroblasts were seeded into 24-well plate at 1×10^5 cells per well and then cultured to 90% of growth.
For each supernatant, procollagen production was measured with procollagen type I ELISA kit.

collagenase = test: Inhibition of collagenase expression in human fibroblasts (ELISA kit); assay type: cell-based; details: 10^−4M, 24 hours, serum-free medium, relative to control group = 100
Experimental: Human fibroblasts were seeded into 96-well microtiter plate at 5,000 cells per well and then cultured to 90% of growth in DMEM (Dulbecco's Modified Eagle's Media) supplemented with 2.5% fetal bovine serum. Then, the fibroblastes were cultured in serum-free DMEM for 24 hours and treated for 24 hours with 10^−4M of hydroxamic acid derivatives of Examples 1˜55, retinol or retinoic acid in serum-free medium, and then the culture fluid was collected.
(§2) For each culture fluid, collagenase production was measured with collagenase kit (commercialized by AmershamPharmacia Biotech). Firstly, the culture fluid was added to 96-well plate spread with primary collagenase antibody and then antigen-antibody reaction was performed in an incubator for 3 hours. Later, chromophore-conjugated secondary antibody was added to the 96-well plate and then reacted for 15 minutes. Then, color former was added thereto, to induce development at room temperature for 15 minutes. 1M of sulfuric acid was added to stop the reaction. […] The color density depends on the progress of the reaction. The absorbance of the yellow 96-well plate was measured at 405 nm using absorptiometer. Collagenase expression was calculated by the following equation 1. Herein, the absorbance of the culture fluid collected from the medium with no material treated was used as a control. Collagenase expression (%)=(Absorbance of test group with said material treated/Absorbance of control group with no material treated)×100 [Equation 1]
Collagenase expression was evaluated as a relative value, in consideration that the value of control group with no material treated is 100.

elastase = test: Inhibition of elastase expression in human fibroblasts (ELISA kit); assay type: cell-based; details: 10^−4M, 24 hours, serum-free medium, relative to control group = 100
Experimental: as §2, with “elastase” for “collagenase”, “Elastase” for “Collagenase”, “2.” for “1.”, “2]” for “1]”
Elastase expression was evaluated as a relative value, in consideration that the value of control group with no material treated is 100.

white guinea pigs = test: Phototoxicity test (UVA irradiation); details: for Evaluation (phototoxicity): 1%(w/v) solution, UVA 15 J/cm^2; for Phototoxic index: 50 μl of 1%(w/v) solution, UVA 320~380 nm 15 J/cm^2, observed 24, 48 and 72 hours
Experimental: Test was performed for twenty-five (25) of white guinea pigs whose backs were depilated and fixed. On both sides of the back, six(6) sites of 2 cm×2 cm, three(3) per side were sectioned. Right sites were compared as controls with no irradiation (UV non-irradiation sites) and left sites were irradiated (UV irradiation sites).
30 Minutes later, right sites were shielded with aluminum foil and UVA(320˜380 nm) was irradiated at a distance of about 10 cm therefrom using Waldmann to the final energy of 15 J/cm^2. After 24, 48 and 72 hours elapsed, skin response of guinea pig was observed. […] Evaluation was estimated for each elapsed time, i.e. 24, 48 and 72 hours and maximum scores were selected, to calculate irritation index by the following equation 3. Then, phototoxic index was calculated by the following equation 4. Irritation index=(ΣMaximum of erythema+ΣMaximum of edema)/Number of animals [Equation 3] Phototoxic index=(Irritation index of UV irradiation site)−(Irritation index of UV non-irradiation site) Equation 4]

rabbits = test: Primary skin irritation test on animals (Draize P.I.I.); details: depilated back; for P.I.I. (Primary Irritation Index): 0.5 ml of 1% solution in 1,3-butylene glycol:ethanol 7:3, observed 24 or 72 hours later; for Evaluation (skin irritation): 1% solution, according to Draize's P.I.I.

Row | SMILES | Luciferase activity RARα (RARα) | Luciferase activity RARγ (RARγ) | Collagen biosynthesis (%) (procollagen type I) | Collagenase expression (%) (collagenase) | Elastase expression (%) (elastase) | Evaluation (phototoxicity) (white guinea pigs) | Phototoxic index (white guinea pigs) | P.I.I. (Primary Irritation Index) (rabbits) | Evaluation (skin irritation) (rabbits)
1 | CC(C)c1ccc(C(=O)N(C)c2ccc(C(=O)NO)cc2)cc1 [Example 17] | 12400 | 11700 | 111 | 81 | 82 | No phototoxicity (lower value than 0.5, criterion value to be estimated as no phototoxicity) | 0 | 0.123 | No irritation
2 | CCc1ccc(N(C)C(=O)c2ccc(C(=O)NO)cc2)cc1 [Example 48, [4-(N-hydroxycarbamoyl)phenyl]-N-methyl-N-[4-ethylphenyl]carboxyamide] | 15500 | 11200 | 107 | 87 | 87 | No phototoxicity (lower value than 0.5, criterion value to be estimated as no phototoxicity) | 0 | 0.468 | No irritation
3 | CCCCc1ccc(C(=O)Nc2ccc(CC(=O)NO)cc2)cc1 [Example 29, N-[4-(N-hydroxycarbamoylmethyl)phenyl][4-butylphenyl]carboxyamide] | 18900 | 10600 | 132 | 77 | 70 | No phototoxicity (lower value than 0.5, criterion value to be estimated as no phototoxicity) | 0 | 0.234 | No irritation
4 | CN(C(=O)c1ccccc1)c1ccc(C(=O)NO)cc1 [Example 12, N-[4-(N-hydroxycarbamoyl)phenyl]-N-methyl-benzamide] | 14500 | 11300 | 122 | 64 | 80 | No phototoxicity (lower value than 0.5, criterion value to be estimated as no phototoxicity) | 0 | 0.410 | No irritation
5 | CCc1ccc(C(=O)Nc2ccc(CC(=O)NO)cc2)cc1 [Example 26, N-[4-(N-hydroxycarbamoylmethyl)phenyl][4-ethylphenyl]carboxyamide] | 17500 | 11200 | 123 | 78 | 86 | No phototoxicity (lower value than 0.5, criterion value to be estimated as no phototoxicity) | 0 | 0.321 | No irritation
6 | CN(O)C(=O)c1ccc(NC(=O)C23CC4CC(CC(C4)C2)C3)cc1 [Example 11, adamantyl-N-[4-(N-hydroxy-N-methylcarbamoyl)phenyl]carboxyamide] | 11600 | 10000 | 110 | 81 | 65 | No phototoxicity (lower value than 0.5, criterion value to be estimated as no phototoxicity) | 0 | 0.375 | No irritation
7 | CCCCc1ccc(C(=O)Nc2ccc(C(=O)NO)cc2)cc1 [Example 7, N-[4-(N-hydroxycarbamoyl)phenyl][4-butylphenyl]carboxyamide] | 12000 | 11700 | 109 | 84 | 77 | No phototoxicity (lower value than 0.5, criterion value to be estimated as no phototoxicity) | 0 | 0.312 | No irritation
